Consider 14 molecules from US10329277B2, “N-(2-((2-(dimethylamino)ethyl)(methyl)amino)-4-methoxy-5-((4-(3-methyl-2-OXO-2,3-dihydro-1h-benzo[d]imidazol-1-yl)pyrimidin-2-yl)amino)phenyl)acrylamide hydrochloride as an inhibitor of epidermal growth factor receptor activity” (CHIA TAI TIANQING PHARMACEUTICAL GROUP CO., LTD., priority 2015, dated 2019).

Where a name gives a salt, the structure may show the parent alone. Read-outs that look alike come from different tables or passages of the source.

Data set [1] concerns the target T1, EGFR(WT) (Homo sapiens, UniProt P00533).
T1 construct: made in house; host or cells: insect cell expression system
The experiment in a line: In vitro enzymatic assay (HTRF), EGFR kinase. In kind it is biochemical. On the technique in general: In TR-FRET formats the signal depends on donor and acceptor labels being close together.

Data set [2] relates to Human skin squamous carcinoma cell line A431. In words: Cell proliferation assay, A431 (soft agar, CellTiter-Blue). In kind it is cell-based. As to conditions: A-431, 168 h, A431, treatment 7 days, read-out: Cell viability (IC50 nM) A431. How it is done:
Human skin squamous carcinoma cell line A431 was cultured in DMEM supplemented with 10% fetal bovine serum and 1% penicillin-plus-streptomycin in a cell incubator (37° C., 5% CO2). In the tests of the compounds, the bottom substrate was at a concentration of 0.6%. Cells were re-suspended with 0.3% low-melting-point agar, and then seeded in a 96-well plate at a density of 2,000 cells per well (100 μl). The compounds were diluted at a 3-fold gradient with a starting concentration of 10 mM. 2 μl of each concentration was taken and added to 98 μl of culture medium, and then 5.3 μl of the mixture was added to the cell culture medium (final DMSO concentration being 0.1%, v/v). After treatment for one week (7 days), 20 μl of CellTiter-Blue® (Promega) reagent was added, and the plate was incubated at 37° C. for 4 hours. Fluorescence signals were read on Envison (Perkin Elmer), and IC50 values of the compound for inhibiting cell proliferation were calculated using GraphPad Prism 5.0.
On the technique in general: Resazurin is reduced to fluorescent resorufin, in cell work by metabolically active cells.

In data set [3] the test system is Human non-small cell lung cancer cells NCI-H1975. In words: Cell proliferation assay, NCI-H1975 (CellTiter-Glo). The note with it: NCI-H1975, treatment 72 hours, read-out: Cell viability (IC50 nM) NCI-H1975. Format: cell-based. The method, then: Human non-small cell lung cancer cells NCI-H1975 were cultured in RPIM-1640 culture medium supplemented with 10% fetal bovine serum and 1% penicillin-plus-streptomycin in a cell incubator (37° C., 5% CO2). The cells were seeded in a 96-well plate at a density of 2,000 cells per well (volume: 195 μl) and cultured overnight. On the next day, the compounds were added. In particular, the compounds were diluted at a 3-fold gradient with a starting concentration of 10 mM. 4 μl of each concentration was taken and added into 96 μl of culture medium. […] After treatment for 72 hours, the medium was aspirated and 30 μl of CellTiter-Glo® (Promega) reagent was added. Fluorescence signals were read on Envison (Perkin Elmer), and IC50 values of the compounds for inhibiting cell proliferation were calculated using GraphPad Prism 5.0.
(ATP-based viability assays read luminescence as a measure of living cells.)

Data set [4] can be described thus: Pharmacokinetic assay in rats. As to conditions: PO 10 mg/kg single dose, plasma. Format: in vivo. The method, then: Healthy adult male rats were subjected to single-dose intragastric administration of the test compounds at a dose of 10 mg/kg with 20% sulfobutyl ether-β-cyclodextrin as an excipient. Before the experiment, the animals were fasted overnight, and the fasting time last from 10 hrs prior to the administration to 4 hrs after the administration. At 0.25, 0.5, 1, 2, 4, 6, 8 and 24 hrs after the intragastric administration, blood sampling was conducted. Approximately 0.3 mL of whole blood was collected from retro-orbital venous sinus, and placed into tubes that contained heparin as an anticoagulant. The samples were centrifuged at 4° C. and 4000 rpm for 5 min. The plasma was transferred into centrifuge tubes, and stored at −80° C. till being analyzed. Concentrations of test compounds in the plasma samples were analyzed with non-validated liquid chromatography-tandem mass spectrometry (LC-MS/MS). Plasma concentration-time data of individual animals was analyzed using WinNonlin (Professional Edition, version 6.3; Pharsight Company) software. Non-compartmental model was introduced in concentration analysis. The pharmacokinetic parameters of the test compounds were calculated.

Where [5] appears, read: male rats, Hydrochloride, 10 mg/kg.

In general, IC50 refers to the concentration that gives 50% inhibition. One may read the Tmax as the time at which the peak concentration occurs. As a reminder, the Cmax is the peak of the concentration-time curve. Broadly, the AUC(0-inf) is total exposure, with the tail of the curve extrapolated. High values mean high exposure, low ones low exposure.

T1 sequence (P00533 25-1210): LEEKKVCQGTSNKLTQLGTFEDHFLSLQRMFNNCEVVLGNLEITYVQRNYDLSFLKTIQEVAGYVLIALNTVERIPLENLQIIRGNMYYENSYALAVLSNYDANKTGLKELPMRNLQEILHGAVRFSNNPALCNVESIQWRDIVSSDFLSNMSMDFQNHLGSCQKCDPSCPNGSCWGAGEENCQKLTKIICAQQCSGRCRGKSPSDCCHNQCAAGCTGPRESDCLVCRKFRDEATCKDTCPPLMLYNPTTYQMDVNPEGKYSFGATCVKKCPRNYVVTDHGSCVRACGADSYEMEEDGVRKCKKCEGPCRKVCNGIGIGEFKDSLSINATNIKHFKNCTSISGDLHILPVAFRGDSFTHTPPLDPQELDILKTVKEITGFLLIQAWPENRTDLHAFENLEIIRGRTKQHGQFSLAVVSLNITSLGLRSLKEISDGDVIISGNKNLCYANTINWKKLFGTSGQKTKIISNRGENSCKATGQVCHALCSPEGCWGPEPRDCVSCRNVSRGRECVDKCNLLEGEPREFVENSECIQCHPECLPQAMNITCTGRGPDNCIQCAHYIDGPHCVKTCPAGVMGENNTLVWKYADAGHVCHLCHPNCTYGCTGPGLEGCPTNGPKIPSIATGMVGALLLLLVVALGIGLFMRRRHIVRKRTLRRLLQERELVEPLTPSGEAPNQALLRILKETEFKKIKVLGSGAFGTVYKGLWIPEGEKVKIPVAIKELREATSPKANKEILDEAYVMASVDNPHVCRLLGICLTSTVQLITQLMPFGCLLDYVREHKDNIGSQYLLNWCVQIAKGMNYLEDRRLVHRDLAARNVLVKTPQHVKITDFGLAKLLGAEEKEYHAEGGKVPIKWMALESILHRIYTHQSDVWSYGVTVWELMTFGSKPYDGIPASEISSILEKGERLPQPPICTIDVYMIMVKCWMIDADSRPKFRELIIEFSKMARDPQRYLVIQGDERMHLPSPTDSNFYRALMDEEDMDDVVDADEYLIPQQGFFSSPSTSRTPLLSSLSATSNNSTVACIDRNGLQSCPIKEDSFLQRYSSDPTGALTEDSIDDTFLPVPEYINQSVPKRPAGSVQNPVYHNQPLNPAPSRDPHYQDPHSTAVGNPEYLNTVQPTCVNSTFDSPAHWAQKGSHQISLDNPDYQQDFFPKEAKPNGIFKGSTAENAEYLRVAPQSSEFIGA

`C=CC(=O)Nc1cc(Nc2nccc(-n3c(=O)n(C)c4ccccc43)n2)c(OC)cc1N(C)CCN(C)C` [Example 1, N-(2-((2-(dimethylamino)ethyl)(methyl)amino)-4-methoxy-5-(4-(3-methyl-2-oxo-2,3-dihydro-1H-benzo[d]imidazol-1-yl)pyrimidin-2-ylamino)phenyl)acrylamide Hydrochloride] displayed an IC50 in data set [1] of 9.07 nM. The IC50 in data set [2] turned out to be 22.5 nM. Besides, the IC50 in data set [3] is 2.76 nM. Moreover, the Tmax in data set [4] (male rats) was 40.2 min. In addition, in data set [4] (setting [5]), the AUC0-INF is 667 ng·h/mL, the Cmax came to 272 ng/mL and the t1/2 was 67.2 min.
`C=CC(=O)Nc1cc(Nc2ncc(Cl)c(-n3c(=O)[nH]c4ccccc43)n2)c(OC)cc1N(C)CCN(C)C` [Example 4, N-(5-(5-chloro-4-(2-oxo-2,3-dihydro-1H-benzo[d]imidazol-1-yl)pyrimidin-2-ylamino)-2-((2-(dimethylamino)ethyl)(methyl)amino)-4-methoxyphenyl) acrylamide Hydrochloride]: the IC50 in data set [1] turned out to be 20.6 nM; in data set [3], 2.87 nM.
With `C=CC(=O)Nc1cc(Nc2nccc(-n3c(=O)n(C)c4cc(F)ccc43)n2)c(OC)cc1N(C)CCN(C)C` [Example 10, N-(2-((2-(dimethylamino)ethyl)(methyl)amino)-5-(4-(5-fluoro-3-methyl-2-oxo-2,3-dihydrobenzo[d]imidazol-1-yl)pyrimidin-2-ylamino)-4-methoxyphenyl) acrylamide Hydrochloride], the IC50 was 10.7 nM in data set [1] and 1.46 nM in data set [3].
As to `C=CC(=O)Nc1cc(Nc2nccc(-c3cn(C)c4ccccc34)n2)c(OC)cc1N(C)CCN(C)C` [AZD9291, reference compound], the IC50 in data set [2] came to 53.5 nM; in data set [3], 9.08 nM.
Take `C=CC(=O)Nc1cc(Nc2nccc(-n3c(=O)oc4ccccc43)n2)c(OC)cc1N(C)CCN(C)C` [Example 5, N-(2-((2-(dimethylamino)ethyl)(methyl)amino)-4-methoxy-5-(4-(2-oxobenzo[d]oxazol-3(2H)-yl)pyrimidin-2-ylamino)phenyl) acrylamide Hydrochloride]: the IC50 in data set [1] is 44.9 nM; in data set [3] it was 17 nM.
Turning to `COC/C=C/C(=O)Nc1cc(Nc2nccc(-n3c(=O)n(C)c4ccccc43)n2)c(OC)cc1N(C)CCN(C)C` [Example 7, (E)-N-(2-((2-(dimethylamino)ethyl)(methyl)amino)-4-methoxy-5-(4-(3-methyl-2-oxo-2,3-dihydro-1H-benzo[d]imidazol-1-yl)pyrimidin-2-ylamino)phenyl)-4-methoxybut-2-enamide], the concentration for half-maximal inhibition (IC50) in data set [1] is 164 nM.
The molecule `C=CC(=O)Nc1cc(Nc2nccc(-n3c(=O)[nH]c4cc(C)ccc43)n2)c(OC)cc1N(C)CCN(C)C` [Example 9, N-(2-((2-(dimethylamino)ethyl)(methyl)amino)-4-methoxy-5-(4-(5-methyl-2-oxo-2,3-dihydrobenzo[d]imidazol-1-yl)pyrimidin-2-ylamino)phenyl)acrylamide Hydrochloride] displayed a half-inhibitory concentration (IC50) in data set [1] of 3.93 nM.
Turning to `C=CC(=O)Nc1cc(Nc2ncc(Cl)c(-n3c(=O)n(C)c4ccccc43)n2)c(OC)cc1N(C)CCN(C)C` [Example 3, N-(5-(5-chloro-4-(3-methyl-2-oxo-2,3-dihydro-1H-benzo[d]imidazol-1-yl)pyrimidin-2-ylamino)-2-((2-(dimethylamino)ethyl)(methyl)amino)-4-methoxyphenyl) acrylamide Hydrochloride], in data set [1], the IC50 was 196 nM.
For `C=CC(=O)Nc1cc(Nc2nccc(-n3c(=O)n(C)c4ccccc43)n2)c(OC)cc1N(C)CCNC` [Example 12, N-(4-methoxy-2-(methyl(2-(methylamino)ethyl)amino)-5-(4-(3-methyl-2-oxo-2,3-dihydrobenzo[d]imidazol-1-yl)pyrimidin-2-ylamino)phenyl)acrylamide Hydrochloride], the IC50 was found to be 5.26 nM in data set [1] and 3.17 nM in data set [3].
As for `C=CC(=O)Nc1cc(Nc2nccc(-n3c(=O)[nH]c4ccccc43)n2)c(OC)cc1N(C)CCN(C)C` [Example 2, N-(2-((2-(dimethylamino)ethyl)(methyl)amino)-4-methoxy-5-(4-(2-oxo-2,3-dihydrobenzo[d]imidazol-1-yl)pyrimidin-2-ylamino)phenyl)acrylamide Hydrochloride], the IC50 in data set [1] was 2.59 nM; in data set [3], 0.96 nM.
Regarding `C=CC(=O)Nc1cc(Nc2nccc(-n3c(=O)n(C)c4cc(Br)ccc43)n2)c(OC)cc1N(C)CCN(C)C` [Example 15, N-(5-(4-(5-bromo-3-methyl-2-oxo-2,3-dihydro-1H-benzo[d]imidazole-1-yl)pyrimidin-2-ylamino)-2-((2-(dimethylamino)ethyl)(methyl)amino)-4-methoxyphenyl) acrylamide Hydrochloride], the IC50 in data set [2] came to 834 nM; in data set [3] it was 6.83 nM.
On to `C=CC(=O)Nc1cc(Nc2nccc(-n3c(=O)n(C)c4cc(Cl)ccc43)n2)c(OC)cc1N(C)CCN(C)C` [Example 14, N-(5-(4-(5-chloro-3-methyl-2-oxo-2,3-dihydro-1H-benzo[d]imidazole-1-yl)pyrimidin-2-ylamino)-2-((2-(dimethylamino)ethyl)(methyl)amino)-4-methoxyphenyl) acrylamide Hydrochloride], for which the IC50 in data set [2] came to 538 nM; in data set [3] it was 4.56 nM.
For `C=CC(=O)Nc1cc(Nc2nccc(-n3c(=O)[nH]c4cc(F)ccc43)n2)c(OC)cc1N(C)CCN(C)C` [Example 11, N-(2-((2-(dimethylamino)ethyl)(methyl)amino)-5-(4-(5-fluoro-2-oxo-2,3-dihydrobenzo[d]imidazol-1-yl)pyrimidin-2-ylamino)-4-methoxyphenyl)acrylamide Hydrochloride], the values for the IC50 in data set [1] and in data set [3] were 2.79 nM and 3.7 nM, respectively.
For the molecule `C=CC(=O)Nc1cc(Nc2nccc(-n3c(=O)n(C)c4ccccc43)n2)c(OC)cc1N(C)CCN(C)C` [Example 13, N-(2-((2-(dimethylamino)ethyl)(methyl)amino)-4-methoxy-5-(4-(3-methyl-2-oxo-2,3-dihydro-1H-benzo[d]imidazol-1-yl)pyrimidin-2-ylamino)phenyl)acrylamide], in data set [4] (male rats, 10 mg/kg), the Cmax turned out to be 94.4 ng/mL and the t1/2 stood at 147 min. Further, in data set [4] (male, rat, po, 10 mg/kg), the AUC(0-inf) came to 401 ng·h/mL. Moreover, the Tmax in data set [4] (rat, male rats, read-out: Tmax) turned out to be 40.2 min.
